Assay [1] deals with BXF 1218. Nature of the assay: clonogenic assay, human tumor xenografts in vitro. As to conditions: Bladder, BXF 1218, Transitional cell carcinoma, soft agar, read-out: IC50 (nM), colony formation. It counts as cell-based. How it is done:
(§1) The anticancer activity of 5-(2,4-Dihydroxy-5-isopropyl-phenyl)-4-(4-morpholin-4-ylmethyl-phenyl)-isoxazole-3-carboxylic acid ethylamide is evaluated in 30 human tumor xenografts in vitro using a clonogenic assay. In this assay, human cells derived from cancer patients are evaluated for the capacity of 5-(2,4-Dihydroxy-5-isopropyl-phenyl)-4-(4-morpholin-4-ylmethyl-phenyl)-isoxazole-3-carboxylic acid ethylamide to inhibit the formation of 3 dimensional colonies. […] The tumor xenografts which have never been cultured in cell culture plastic dishes are isolated from nude mice. Tumor cell suspensions are prepared and incubated in 24 well plates containing layers of soft agar. Under these conditions a special subpopulation of cells selectively grows to colonies. 5-(2,4-Dihydroxy-5-isopropyl-phenyl)-4-(4-morpholin-4-ylmethyl-phenyl)-isoxazole-3-carboxylic acid ethylamide was tested in 6 concentrations up to […]. The tumor test panel comprises 1 to 6 models of 10 different human tumor or cancer types, which were bladder cancer, colon, liver, non small cell lung (adeno, squamous epithelium and large cell), small cell lung, mammary, ovary, pancreatic, melanoma and pleuramesothelioma. Antitumor effects are recorded as inhibition of colony formation in relation to untreated controls. Further information on the method has been published (Burger et al., 2004; Fiebig et al., 2004; Smith et al., 2005).
(§2) The cells are continually exposed to 5-(2,4-Dihydroxy-5-isopropyl-phenyl)-4-(4-morpholin-4-ylmethyl-phenyl)-isoxazole-3-carboxylic acid ethylamide and colony formation is determined.
A general note: In xenograft studies the graft and the host belong to different species.

Assay [2] concerns CXF 1103. Description: clonogenic assay, human tumor xenografts in vitro. It counts as cell-based. As to conditions: CXF1103, Colon, CXF 1103, Adeno carcinoma, soft agar, read-out: IC50 (nM), colony formation. How it is done: as §1, §2
Assay [3] concerns CXF 158. Nature of the assay: clonogenic assay, human tumor xenografts in vitro. As to conditions: CXF158, Colon, CXF 158, Adeno carcinoma, soft agar, read-out: IC50 (nM), colony formation. It counts as cell-based. How it is done: as §1, §2
In assay [4] the test system is CXF 609. Nature of the assay: clonogenic assay, human tumor xenografts in vitro. It counts as cell-based. As to conditions: Colon, CXF 609, Adeno carcinoma, soft agar, read-out: IC50 (nM), colony formation. How it is done: as §1, §2
The subject of assay [5] is LXFA 297. Description: clonogenic assay, human tumor xenografts in vitro. As to conditions: Lung, non-small cell, LXFA 297, Adeno carcinoma, soft agar, read-out: IC50 (nM), colony formation. It counts as cell-based. How it is done: as §1, §2
Assay [6] relates to LXFA 526. Nature of the assay: clonogenic assay, human tumor xenografts in vitro. It counts as cell-based. As to conditions: Lung, non-small cell, LXFA 526, Adeno carcinoma, soft agar, read-out: IC50 (nM), colony formation. How it is done:
as §1, §2

Assay [7] deals with LXFA 629. Description: clonogenic assay, human tumor xenografts in vitro. It counts as cell-based. As to conditions: Lung, non-small cell, LXFA 629, Adeno carcinoma, soft agar, read-out: IC50 (nM), colony formation. How it is done:
as §1, §2

The test system of assay [8] is LXFA 983. Description: clonogenic assay, human tumor xenografts in vitro. It counts as cell-based. As to conditions: Lung, non-small cell, LXFA 983, Adeno carcinoma, soft agar, read-out: IC50 (nM), colony formation. How it is done:
as §1, §2

Assay [9] has as its system LXFE 1422. Nature of the assay: clonogenic assay, human tumor xenografts in vitro. As to conditions: Lung, non-small cell, LXFE 1422, Squamous cell carcinoma, soft agar, read-out: IC50 (nM), colony formation. It counts as cell-based. How it is done: as §1, §2
The subject of assay [10] is LXFL 1647. Nature of the assay: clonogenic assay, human tumor xenografts in vitro. It counts as cell-based. As to conditions: Lung, non-small cell, LXFL 1647, Large cell lung carcinoma, soft agar, read-out: IC50 (nM), colony formation. How it is done: as §1, §2
The subject of assay [11] is LXFS 650. Nature of the assay: clonogenic assay, human tumor xenografts in vitro. It counts as cell-based. As to conditions: Lung, small cell, LXFS 650, Small cell lung carcinoma, soft agar, read-out: IC50 (nM), colony formation. How it is done: as §1, §2
The subject of assay [12] is MEXF 1539. Description: clonogenic assay, human tumor xenografts in vitro. It counts as cell-based. As to conditions: Melanoma, MEXF 1539, Melanoma, soft agar, read-out: IC50 (nM), colony formation. How it is done: as §1, §2
In assay [13] the test system is MEXF 462. Description: clonogenic assay, human tumor xenografts in vitro. As to conditions: Melanoma, MEXF 462, Amelanotic melanoma, soft agar, read-out: IC50 (nM), colony formation. It counts as cell-based. How it is done: as §1, §2
In assay [14] the test system is MEXF 535. Nature of the assay: clonogenic assay, human tumor xenografts in vitro. As to conditions: Melanoma, MEXF 535, Amelanotic melanoma, soft agar, read-out: IC50 (nM), colony formation. It counts as cell-based. How it is done:
as §1, §2

Assay [15] concerns OVXF 1353. Nature of the assay: clonogenic assay, human tumor xenografts in vitro. It counts as cell-based. As to conditions: Ovary, OVXF 1353, Adeno carcinoma, soft agar, read-out: IC50 (nM), colony formation. How it is done:
as §1, §2

Assay [16] has as its system OVXF 1544. Nature of the assay: clonogenic assay, human tumor xenografts in vitro. It counts as cell-based. As to conditions: Ovary, OVXF 1544, Carcinoma, soft agar, read-out: IC50 (nM), colony formation. How it is done:
as §1, §2

In assay [17] the test system is PAXF 1657. Nature of the assay: clonogenic assay, human tumor xenografts in vitro. It counts as cell-based. As to conditions: Pancreas, PAXF 1657, Adeno carcinoma, soft agar, read-out: IC50 (nM), colony formation. How it is done:
as §1, §2

Assay [18] has as its system PXF 1118. Description: clonogenic assay, human tumor xenografts in vitro. As to conditions: Pleuramesothelioma, PXF 1118, Biphasic pleuramesothelioma, soft agar, read-out: IC50 (nM), colony formation. It counts as cell-based. How it is done:
as §1, §2

Assay [19] has as its system BN472 xenograft. Description: antitumor effect in the rat breast cancer model BN-472. It counts as in vivo. As to conditions: for T/C (%) / ΔTumor volume (mm^3): qw, i.v.; for ΔTumor volume (mm^3): mean ±SEM. How it is done:
The transplantable rat breast cancer tumor BN472 is serially passaged as fragments in female syngeneic Brown Norway rats. The injection site is orthotopically in the mammary fat pad. Treatment with AUY922 is initiated when the average tumor volume reaches approximately 100 mm^3. Tumor growth is monitored at regular intervals. The xenograft tumor sizes are measured manually with calipers and the tumor volume is estimated using the formula: (W×L^2×π/6), where width (W) and height (H) are the two largest diameters. Results are presented as mean ±SEM. Tumor data were analyzed by ANOVA with post hoc Dunnet's test for comparison of treatment versus control group. As a measure of efficacy the % T/C value is calculated at the end of the experiment according to: (Δtumor volumetreated/Δtumor volumecontrol)*100 where Δtumor volumes represent the mean tumor volume on the evaluation day minus the mean tumor volume at the start of the experiment. The antitumor effect of AUY922 is evaluated in the BN472 xenograft model. Each group consists of seven tumor bearing animals. At the end of the study, the tumor sizes in the treatment groups are compared to those of the vehicle treated groups and the effect is expressed as %T/C.

As usually defined, the IC50 is the concentration needed to halve the response being measured. As to `CCNC(=O)c1noc(-c2cc(C(C)C)c(O)cc2O)c1-c1ccc(CN2CCOCC2)cc1` [AUY922, 5-(2,4-Dihydroxy-5-isopropyl-phenyl)-4-(4-morpholin-4-ylmethyl-phenyl)-isoxazole-3-carboxylic acid ethylamide], the IC50 was 27 nM in [1]; 13 nM in assay [2]; 369 nM in assay [3]; 55 nM in [4]; 28 nM in [5]; 5 nM in assay [6]. For the same molecule, the IC50 in [7] came out at 35 nM; in [8], 126 nM; in [9], 48 nM; in [10] it was 34 nM; in assay [11], 2 nM; in assay [12], 3 nM. The IC50 amounted to 24 nM in assay [13]; 43 nM in assay [14]; 26 nM in assay [15]; 53 nM in [16]; 39 nM in [17]; 223 nM in assay [18]. For the same molecule, the entries for the “T/C (%)” value in [19] (25 mg/kg) and in assay [19] (50 mg/kg) were 78% and 21%, respectively. For the same molecule, the “ΔTumor volume (mm^3)” value in assay [19] (25 mg/kg) is listed as 4357 ± 1338 mm^3; in assay [19] (50 mg/kg, *P < 0.05), 1148 ± 152* mm^3. Further, the “reduction of tumor sizes versus vehicle” value in assay [19] (once per week at 50 mg/kg) was “Statistically significant reduction of tumor sizes”.

Values taken from patent US20160045513A1, “ISOXAZOLE COMPOUND FOR THE TREATMENT OF CANCER” (Novartis AG, priority 2007, published 2016).
